Measured values taken from patent US20240207444A1, “LIPID NANOPARTICLES CONTAINING POLYNUCLEOTIDES ENCODING PHENYLALANINE HYDROXYLASE AND USES THEREOF” (ModernaTX, Inc., priority 2021, published 2024).

experiment: Residual parent lipid levels in the liver of mice; type: in vivo, CD-1 mice; settings: calculation assumes a 25 g mouse with a 1.5 g liver, >95% equals very slow metabolism of the lipid
Procedure: To assess potency of expression and metabolic stability of lipids of the disclosure, hepatocyte protein expression (hEPO) was measured following administration to mice of a nanoparticle of the disclosure.
Lipid nanoparticles including DSPC as a phospholipid, cholesterol as a structural lipid, Compound I as a PEG lipid, an ionizable amino lipid of Formula (II), and an mRNA encoding hEPO were intravenously administered to CD-1 mice. The concentration of hEPO in serum was tested at 6 hours after injection.

Approx. Percent Total Dose of Parent Lipid Remaining at 24 h | Structure (SMILES)
<0.1%^ | CCCCCCCCC(CCCCCCCC)OC(=O)CCCCCCCN(CCO)CCCCCCCC(=O)OCCC1CCC(CC)C1 (stereo not shown) [Compound 37]
9 ± 0.8% ^ | CCCCCCC(CCCCCC)OC(=O)CCCCCCCN(CCCCCCCC(=O)OCCC(CCCC)CCCC)CCCNc1c(NC)c(=O)c1=O [Compound 60]
9 ± 3% ^ | CCCCCCCC(CCCCCCC)OC(=O)CCCCCCCN(CCCCCCCC(=O)OCCC(CCC)CCC)CCCNc1c(NC)c(=O)c1=O [Compound 63]
0.9 ± 0.06% ^ | CCCCCC(CCCCC)OC(=O)CCCCCCCN(CCCCCCCC(=O)OCCC(CCC)CCC)CCCNc1c(NC)c(=O)c1=O [Compound 65]
<0.1%^ | CCCCCCCCC(CCCCCCCC)OC(=O)CCCCCCCN(CCO)CCCCCCCC(=O)OCCCC(CCCCC)CCCCC [Compound 31]
<0.1%^ | CCCCCCCCC(CCCCCCCC)OC(=O)CCCCCCCN(CCO)CCCCCCCC(=O)OCCC1CCC(CC)CC1 (stereo not shown) [Compound 35]
<0.1%^ | CCCCCC(CCCCC)CCCOC(=O)CCCCCCCN(CCO)CCCCCCCC(=O)OCCCC(CCCCC)CCCCC [Compound 33]
2 ± 0.9% ^ | CCCCC(CCCC)CCOC(=O)CCCCCCCN(CCCCCCCC(=O)OC(CCCC)CCCC)CCCNc1c(NC)c(=O)c1=O [Compound 62]
6 ± 0.3% ^ | CCCCCC(CCCCC)OC(=O)CCCCCCCN(CCCCCCCC(=O)OCCC(CCCC)CCCC)CCCNc1c(NC)c(=O)c1=O [Compound 61]
6 ± 0.8% ^ | CCCCCCC(CCCCCC)OC(=O)CCCCCCCN(CCCCCCCC(=O)OCCC(CCC)CCC)CCCNc1c(NC)c(=O)c1=O [Compound 64]
